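At the GI50, growth is halved. At the TGI there is no net growth.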
Legend:
Test in all cases: growth of human tumour cells (NCI), 384-well format
RXF 393 renal = tested on: RXF 393 renal
EKVX NSCLC = tested on: EKVX NSCLC
NCI-H23 lung = tested on: NCI-H23 lung
LOX IMVI melanoma = tested on: LOX IMVI melanoma
SW-620 colon = tested on: SW-620 colon
CCRF-CEM leukemia = tested on: CCRF-CEM leukemia
T-47D breast = tested on: T-47D breast
MOLT-4 leukemia = tested on: MOLT-4 leukemia
SK-MEL-28 melanoma = tested on: SK-MEL-28 melanoma
NCI-H226 lung = tested on: NCI-H226 lung
SNB-19 CNS = tested on: SNB-19 CNS
NCI-H460 NSCLC = tested on: NCI-H460 NSCLC
NCI-H522 lung = tested on: NCI-H522 lung
SNB-75 CNS = tested on: SNB-75 CNS
NCI/ADR-RES ovarian = tested on: NCI/ADR-RES ovarian
OVCAR-3 ovarian = tested on: OVCAR-3 ovarian
HOP-92 NSCLC = tested on: HOP-92 NSCLC
HL-60(TB) leukemia = tested on: HL-60(TB) leukemia
SF-295 CNS = tested on: SF-295 CNS
SK-MEL-2 melanoma = tested on: SK-MEL-2 melanoma
MALME-3M melanoma = tested on: MALME-3M melanoma
IGROV1 ovarian = tested on: IGROV1 ovarian
SK-MEL-5 melanoma = tested on: SK-MEL-5 melanoma
BT-549 breast = tested on: BT-549 breast
A549 NSCLC = tested on: A549 NSCLC
SF-268 CNS = tested on: SF-268 CNS
TK-10 renal = tested on: TK-10 renal
MDA-MB-231 breast = tested on: MDA-MB-231 breast
M14 melanoma = tested on: M14 melanoma
ACHN renal = tested on: ACHN renal
OVCAR-5 ovarian = tested on: OVCAR-5 ovarian
HOP-62 NSCLC = tested on: HOP-62 NSCLC
HS 578T breast = tested on: HS 578T breast
UO-31 renal = tested on: UO-31 renal
CAKI-1 renal = tested on: CAKI-1 renal
NCI-H322M lung = tested on: NCI-H322M lung
COLO 205 colon = tested on: COLO 205 colon
UACC-62 melanoma = tested on: UACC-62 melanoma
SK-OV-3 ovarian = tested on: SK-OV-3 ovarian
DU-145 prostate = tested on: DU-145 prostate
K-562 leukemia = tested on: K-562 leukemia
U251 glioblastoma = tested on: U251 glioblastoma
A498 renal = tested on: A498 renal
HCT-116 colon = tested on: HCT-116 colon
OVCAR-8 ovarian = tested on: OVCAR-8 ovarian
786-0 renal = tested on: 786-0 renal
MDA-MB-468 breast = tested on: MDA-MB-468 breast
UACC-257 melanoma = tested on: UACC-257 melanoma
SN12C renal = tested on: SN12C renal
KM12 colon = tested on: KM12 colon
PC-3 prostate = tested on: PC-3 prostate
MDA-MB-435 melanoma = tested on: MDA-MB-435 melanoma
RPMI-8226 leukemia = tested on: RPMI-8226 leukemia
SF-539 CNS = tested on: SF-539 CNS
HCT-15 colon = tested on: HCT-15 colon
HCC-2998 colon = tested on: HCC-2998 colon
HT29 colon = tested on: HT29 colon
SR leukemia = tested on: SR leukemia
OVCAR-4 ovarian = tested on: OVCAR-4 ovarian

## COc1cc2c(c(OC)n1)[C@]1(O)[C@H](O)[C@H](CN(C)C)[C@@H](c3ccccc3)[C@]1(c1ccc(C#N)cc1)O2
RXF 393 renal
  GI50: < 10 nM
  TGI: 21.8 nM
EKVX NSCLC
  GI50: < 10 nM
  TGI: 46.3 nM
NCI-H23 lung
  GI50: < 10 nM
  TGI: 41.2 nM
LOX IMVI melanoma
  GI50: < 10 nM
  TGI: 20.5 nM
SW-620 colon
  GI50: < 10 nM
  TGI: 10000 nM
CCRF-CEM leukemia
  GI50: < 10 nM
  TGI: 17.8 nM
T-47D breast
  GI50: < 10 nM
  TGI: 53.3 nM
MOLT-4 leukemia
  GI50: < 10 nM
  TGI: < 10 nM
SK-MEL-28 melanoma
  GI50: 19.6 nM
  TGI: 67 nM
NCI-H226 lung
  GI50: < 10 nM
  TGI: 57.5 nM
SNB-19 CNS
  GI50: 12.4 nM
  TGI: 119 nM
NCI-H460 NSCLC
  GI50: < 10 nM
  TGI: 23.3 nM
NCI-H522 lung
  GI50: < 10 nM
  TGI: 33.7 nM
SNB-75 CNS
  GI50: 16 nM
  TGI: 360 nM
NCI/ADR-RES ovarian
  GI50: 138 nM
  TGI: 3270 nM
OVCAR-3 ovarian
  GI50: < 10 nM
  TGI: 28.2 nM
HOP-92 NSCLC
  GI50: 19.5 nM
  TGI: 78.7 nM
HL-60(TB) leukemia
  GI50: < 10 nM
  TGI: < 10 nM
SF-295 CNS
  GI50: 25.9 nM
  TGI: 81.9 nM
SK-MEL-2 melanoma
  GI50: < 10 nM
  TGI: 41.3 nM
MALME-3M melanoma
  GI50: < 10 nM
  TGI: 61.1 nM
IGROV1 ovarian
  GI50: < 10 nM
  TGI: 13900 nM
SK-MEL-5 melanoma
  GI50: < 10 nM
  TGI: 41.4 nM
BT-549 breast
  GI50: 23.7 nM
  TGI: 95.7 nM
A549 NSCLC
  GI50: 12 nM
  TGI: 16000 nM
SF-268 CNS
  GI50: 15.7 nM
  TGI: 175 nM
TK-10 renal
  GI50: 13.7 nM
  TGI: 46.4 nM
MDA-MB-231 breast
  GI50: 14.6 nM
  TGI: 94.8 nM
M14 melanoma
  GI50: < 10 nM
  TGI: 38.2 nM
ACHN renal
  GI50: 10.2 nM
  TGI: 48.3 nM
OVCAR-5 ovarian
  GI50: 11 nM
  TGI: 58 nM
HOP-62 NSCLC
  GI50: < 10 nM
  TGI: 48.3 nM
HS 578T breast
  GI50: < 10 nM
  TGI: 40.6 nM
UO-31 renal
  GI50: 21.3 nM
  TGI: 91.6 nM
CAKI-1 renal
  GI50: < 10 nM
  TGI: 41 nM
NCI-H322M lung
  GI50: 13.9 nM
  TGI: 55.7 nM
COLO 205 colon
  GI50: < 10 nM
  TGI: 120 nM
UACC-62 melanoma
  GI50: 11.9 nM
  TGI: 57.5 nM
SK-OV-3 ovarian
  GI50: < 10 nM
  TGI: 1310 nM
DU-145 prostate
  GI50: < 10 nM
  TGI: 48 nM
K-562 leukemia
  GI50: < 10 nM
  TGI: 10700 nM
U251 glioblastoma
  GI50: 12.6 nM
  TGI: 209 nM
A498 renal
  GI50: < 10 nM
  TGI: 266 nM
HCT-116 colon
  GI50: < 10 nM
  TGI: 26 nM
OVCAR-8 ovarian
  GI50: 20.8 nM
  TGI: 10700 nM
786-0 renal
  GI50: 18.6 nM
  TGI: 77.6 nM
MDA-MB-468 breast
  GI50: < 10 nM
  TGI: 23.1 nM
UACC-257 melanoma
  GI50: 25.3 nM
  TGI: 420 nM
SN12C renal
  GI50: < 10 nM
  TGI: 54.6 nM
KM12 colon
  GI50: < 10 nM
  TGI: 72.2 nM
PC-3 prostate
  GI50: < 10 nM
  TGI: 2260 nM
MDA-MB-435 melanoma
  GI50: < 10 nM
  TGI: 583 nM
RPMI-8226 leukemia
  GI50: < 10 nM
  TGI: < 10 nM
SF-539 CNS
  GI50: < 10 nM
  TGI: 20.1 nM
HCT-15 colon
  GI50: 13.1 nM
  TGI: 99.3 nM
HCC-2998 colon
  GI50: < 10 nM
  TGI: 28.5 nM
HT29 colon
  GI50: 22.2 nM
  TGI: 15600 nM
SR leukemia
  GI50: 11.7 nM
  TGI: 32.8 nM
OVCAR-4 ovarian
  GI50: < 10 nM
  TGI: 43.4 nM
